# Key:
# Assay type in all cases: in vivo
# [1] = tested on: goosegrass (Eleusine indica); assay: Test B pre-/postemergence plant response; details: Preemergence, 62 g ai/ha; scale 0 to 100, 0 no effect, 100 complete control
# [2] = tested on: bermudagrass (Cynodon dactylon); assay: Test B pre-/postemergence plant response
# Outline: (§1)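 Each species received compound formulated in non-phytotoxic solvent with surfactant, either at planting into a loam and sand blend or as a foliar spray once plants reached 2 to 18 cm in peat-based medium. Plants stayed in the greenhouse 13 to 15 days before visual evaluation against controls, scored 0 (no effect) to 100 (complete control).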
# [3] = tested on: lambsquarters (Chenopodium album); assay: Test B pre-/postemergence plant response
# Outline: as §1
# [4] = tested on: ragweed (common ragweed, Ambrosia elatior); assay: Test B pre-/postemergence plant response
# Outline: as §1
# [5] = tested on: Italian ryegrass (Lolium multiflorum); assay: Test B pre-/postemergence plant response
# Outline: as §1
# [6] = tested on: sunflower (common oilseed sunflower, Helianthus annuus); assay: Test B pre-/postemergence plant response; details: Preemergence; for Sunflower plant response rating: 125 g ai/ha
# Outline: as §1
# [7] = tested on: galium (catchweed bedstraw, Galium aparine); assay: Test B pre-/postemergence plant response; details: Preemergence; for Galium plant response rating: 125 g ai/ha
# Outline: as §1
# [8] = tested on: nightshade (eastern black nightshade, Solanum ptycanthum); assay: Test B pre-/postemergence plant response; details: Preemergence; for Nightshade plant response rating: 125 g ai/ha
# Outline: as §1
# [9] = tested on: wheat (Triticum aestivum); assay: Test B pre-/postemergence plant response
# Outline: as §1
# [10] = tested on: pigweed (Amaranthus retroflexus); assay: Test B pre-/postemergence plant response
# Outline: as §1
# [11] = tested on: windgrass (Apera spica-venti); assay: Test B postemergence plant response; details: Postemergence; for Windgrass plant response rating: 250 g ai/ha, scale 0 to 100
# Outline: (§2)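 Plants grown in peat/vermiculite medium were sprayed postemergence at 2–18 cm height (1- to 4-leaf stage). After 13–15 days in the greenhouse, response was rated visually against untreated controls on a 0–100 scale (0 no effect, 100 complete control).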
# [12] = tested on: winter barley (Hordeum vulgare); assay: Test B postemergence plant response; details: Postemergence; for Barley plant response rating: 250 g ai/ha, scale 0 to 100
# Outline: as §2
# [13] = tested on: chickweed (Stellaria media); assay: Test B postemergence plant response; details: Postemergence; for Chickweed plant response rating: 250 g ai/ha, scale 0 to 100
# Outline: as §2
# [14] = tested on: canarygrass (Phalaris minor); assay: Test B postemergence plant response; details: Postemergence; for Canarygrass plant response rating: 250 g ai/ha, scale 0 to 100
# Outline: as §2
# [15] = 250 g ai/ha, Preemergence, 0 to 100 scale
# [16] = Postemergence, 31 g ai/ha, scale 0 to 100 (0 no effect, 100 complete control)
# [17] = Postemergence, 62 g ai/ha, scale 0 (no effect) to 100 (complete control), 13 to 15 days
# [18] = Postemergence, 125 g ai/ha, scale 0 to 100 (0 no effect, 100 complete control), 13 to 15 days
# [19] = Postemergence, 250 g ai/ha, scale 0 to 100
# [20] = Preemergence, 31 g ai/ha, scale 0 to 100 (0 no effect, 100 complete control)
# [21] = Preemergence, 62 g ai/ha, scale 0 to 100, 0 no effect, 100 complete control
# [22] = Preemergence, 125 g ai/ha, 0 to 100 scale
# [23] = Postemergence, 125 g ai/ha, visual rating after 13 to 15 days, scale 0 (no effect) to 100 (complete control)
# [24] = 31 g ai/ha, scale 0 to 100 (0 no effect, 100 complete control)
# [25] = 62 g ai/ha, scale 0 to 100, 0 no effect, 100 complete control
# [26] = 62 g ai/ha, scale 0 (no effect) to 100 (complete control), 13 to 15 days
# [27] = 125 g ai/ha, visual rating after 13 to 15 days, scale 0 (no effect) to 100 (complete control)
# [28] = 125 g ai/ha, scale 0 to 100 (0 no effect, 100 complete control), 13 to 15 days
compound,measurement,setting,value
5-[(2-hydroxy-6-oxo-1-cyclohexen-1-yl)carbonyl]-3-phenyl-2-(3-pyridinyl)-4(3H)-pyrimidone [Compound 113],"Plant response rating, Goosegrass",[1],25
same,"Plant response rating, Bermudagrass",[2]; [15],98
same,"Plant response rating, Bermudagrass",[2]; [16],35
same,"Plant response rating, Bermudagrass",[2]; [17],45
same,"Plant response rating, Bermudagrass",[2]; [18],65
same,Bermudagrass plant response rating,[2]; [19],70
same,"Plant response rating, Bermudagrass",[2]; [20],0
same,"Plant response rating, Bermudagrass",[2]; [21],0
same,Bermudagrass plant response rating,[2]; [22],85
same,"Plant response rating, Lambsquarters",[3]; [15],100
same,"Plant response rating, Lambsquarters",[3]; [16],0
same,"Plant response rating, Lambsquarters",[3]; [17],65
same,"Plant response rating, Lambsquarters",[3]; [23],65
same,Lambsquarters plant response rating,[3]; [19],75
same,"Plant response rating, Lambsquarters",[3]; [20],100
same,"Plant response rating, Lambsquarters",[3]; [21],100
same,Lambsquarters plant response rating,[3]; [22],100
same,"Plant response rating, Ragweed",[4]; [15],90
same,"Plant response rating, Ragweed",[4]; [16],50
same,"Plant response rating, Ragweed",[4]; [17],65
same,"Plant response rating, Ragweed",[4]; [23],80
same,Ragweed plant response rating,[4]; [19],85
same,"Plant response rating, Ragweed",[4]; [20],0
same,"Plant response rating, Ragweed",[4]; [21],0
same,Ragweed plant response rating,[4]; [22],15
same,"Plant response rating, Ryegrass, Italian",[5]; [15],0
same,"Plant response rating, Ryegrass, Italian",[5]; [16],0
same,"Plant response rating, Ryegrass, Italian",[5]; [17],0
same,"Plant response rating, Ryegrass, Italian",[5]; [23],0
same,"Ryegrass, Italian plant response rating",[5]; [19],20
same,"Plant response rating, Ryegrass, Italian",[5]; [20],0
same,"Plant response rating, Ryegrass, Italian",[5]; [21],0
same,"Ryegrass, Italian plant response rating",[5]; [22],0
same,"Plant response rating, Sunflower","[6]; 250 g ai/ha, 0 to 100 scale",25
same,"Plant response rating, Sunflower",[6]; [24],0
same,"Plant response rating, Sunflower",[6]; [25],0
same,Sunflower plant response rating,[6]; 0 to 100 scale,0
same,"Plant response rating, Galium","[7]; 250 g ai/ha, 0 to 100 scale",0
same,"Plant response rating, Galium",[7]; [24],0
same,"Plant response rating, Galium",[7]; [25],0
same,Galium plant response rating,[7]; 0 to 100 scale,0
same,"Plant response rating, Nightshade","[8]; 250 g ai/ha, 0 to 100 scale",100
same,"Plant response rating, Nightshade",[8]; [24],80
same,"Plant response rating, Nightshade",[8]; [25],90
same,Nightshade plant response rating,[8]; 0 to 100 scale,95
same,"Plant response rating, Wheat",[9]; [15],0
same,"Plant response rating, Wheat",[9]; [16],0
same,"Plant response rating, Wheat",[9]; [17],0
same,"Plant response rating, Wheat",[9]; [23],10
same,Wheat plant response rating,[9]; [19],15
same,"Plant response rating, Wheat",[9]; [20],0
same,"Plant response rating, Wheat",[9]; [21],0
same,Wheat plant response rating,[9]; [22],0
same,"Plant response rating, Pigweed",[10]; [15],100
same,"Plant response rating, Pigweed",[10]; [16],75
same,"Plant response rating, Pigweed",[10]; [17],75
same,"Plant response rating, Pigweed",[10]; [23],90
same,Pigweed plant response rating,[10]; [19],98
same,"Plant response rating, Pigweed",[10]; [20],100
same,"Plant response rating, Pigweed",[10]; [21],100
same,Pigweed plant response rating,[10]; [22],100
same,"Plant response rating, Windgrass",[11]; [24],5
same,"Plant response rating, Windgrass",[11]; [26],5
same,"Plant response rating, Windgrass",[11]; [27],5
same,Windgrass plant response rating,[11],5
same,"Plant response rating, Barley",[12]; [24],0
same,"Plant response rating, Barley",[12]; [26],0
same,"Plant response rating, Barley",[12]; [28],0
same,Barley plant response rating,[12],0
same,"Plant response rating, Chickweed",[13]; [24],60
same,"Plant response rating, Chickweed",[13]; [26],80
same,"Plant response rating, Chickweed",[13]; [27],90
same,Chickweed plant response rating,[13],100
same,"Plant response rating, Canarygrass",[14]; [24],0
same,"Plant response rating, Canarygrass",[14]; [26],0
same,"Plant response rating, Canarygrass",[14]; [27],0
same,Canarygrass plant response rating,[14],0
O=C1CCCC([O-])=C1C(=O)c1cnc(-c2ccccc2)n(-c2ccccc2)c1=O.[K+] [Compound 14],"Plant response rating, Goosegrass",[1],85
same,"Plant response rating, Bermudagrass",[2]; [15],100
same,"Plant response rating, Bermudagrass",[2]; [16],70
same,"Plant response rating, Bermudagrass",[2]; [17],70
same,"Plant response rating, Bermudagrass",[2]; [18],80
same,Bermudagrass plant response rating,[2]; [19],80
same,"Plant response rating, Bermudagrass",[2]; [20],70
same,"Plant response rating, Bermudagrass",[2]; [21],75
same,Bermudagrass plant response rating,[2]; [22],100
same,"Plant response rating, Lambsquarters",[3]; [15],100
same,"Plant response rating, Lambsquarters",[3]; [16],85
same,"Plant response rating, Lambsquarters",[3]; [17],85
same,"Plant response rating, Lambsquarters",[3]; [23],85
same,Lambsquarters plant response rating,[3]; [19],85
same,"Plant response rating, Lambsquarters",[3]; [20],100
same,"Plant response rating, Lambsquarters",[3]; [21],100
same,Lambsquarters plant response rating,[3]; [22],100
same,"Plant response rating, Ragweed",[4]; [15],90
same,"Plant response rating, Ragweed",[4]; [16],80
same,"Plant response rating, Ragweed",[4]; [17],80
same,"Plant response rating, Ragweed",[4]; [23],85
same,Ragweed plant response rating,[4]; [19],98
same,"Plant response rating, Ragweed",[4]; [20],70
same,"Plant response rating, Ragweed",[4]; [21],90
same,Ragweed plant response rating,[4]; [22],90
same,"Plant response rating, Ryegrass, Italian",[5]; [15],0
same,"Plant response rating, Ryegrass, Italian",[5]; [16],0
same,"Plant response rating, Ryegrass, Italian",[5]; [17],5
same,"Plant response rating, Ryegrass, Italian",[5]; [23],5
same,"Ryegrass, Italian plant response rating",[5]; [19],50
same,"Plant response rating, Ryegrass, Italian",[5]; [20],0
same,"Plant response rating, Ryegrass, Italian",[5]; [21],0
same,"Ryegrass, Italian plant response rating",[5]; [22],0
same,"Plant response rating, Sunflower","[6]; 250 g ai/ha, 0 to 100 scale",98
same,"Plant response rating, Sunflower",[6]; [24],50
same,"Plant response rating, Sunflower",[6]; [25],85
same,Sunflower plant response rating,[6]; 0 to 100 scale,85
same,"Plant response rating, Galium","[7]; 250 g ai/ha, 0 to 100 scale",80
same,"Plant response rating, Galium",[7]; [24],0
same,"Plant response rating, Galium",[7]; [25],0
same,Galium plant response rating,[7]; 0 to 100 scale,40
same,"Plant response rating, Nightshade","[8]; 250 g ai/ha, 0 to 100 scale",100
same,"Plant response rating, Nightshade",[8]; [24],85
same,"Plant response rating, Nightshade",[8]; [25],98
same,Nightshade plant response rating,[8]; 0 to 100 scale,100
same,"Plant response rating, Wheat",[9]; [15],0
same,"Plant response rating, Wheat",[9]; [16],0
same,"Plant response rating, Wheat",[9]; [17],0
same,"Plant response rating, Wheat",[9]; [23],0
same,Wheat plant response rating,[9]; [19],20
same,"Plant response rating, Wheat",[9]; [20],0
same,"Plant response rating, Wheat",[9]; [21],0
same,Wheat plant response rating,[9]; [22],0
same,"Plant response rating, Pigweed",[10]; [15],100
same,"Plant response rating, Pigweed",[10]; [16],80
same,"Plant response rating, Pigweed",[10]; [17],80
same,"Plant response rating, Pigweed",[10]; [23],80
same,Pigweed plant response rating,[10]; [19],98
same,"Plant response rating, Pigweed",[10]; [20],90
same,"Plant response rating, Pigweed",[10]; [21],98
same,Pigweed plant response rating,[10]; [22],100
same,"Plant response rating, Windgrass",[11]; [24],5
same,"Plant response rating, Windgrass",[11]; [26],30
same,"Plant response rating, Windgrass",[11]; [27],30
same,Windgrass plant response rating,[11],50
same,"Plant response rating, Barley",[12]; [24],0
same,"Plant response rating, Barley",[12]; [26],0
same,"Plant response rating, Barley",[12]; [28],5
same,Barley plant response rating,[12],40
same,"Plant response rating, Chickweed",[13]; [27],80
same,Chickweed plant response rating,[13],80
same,"Plant response rating, Canarygrass",[14]; [24],10
same,"Plant response rating, Canarygrass",[14]; [26],20
same,"Plant response rating, Canarygrass",[14]; [27],20
same,Canarygrass plant response rating,[14],50
